Measurements as given in BindingDB's records for doi:10.1021/jm00045a013 (Sandoz Forschungsinstitut Ges.M.B.H., 1994).

These molecules were tested against T1, Dimer of Gag-Pol polyprotein [514-612] (Human immunodeficiency virus 2, UniProt P04584) (assay: Protease Inhibition Assay). Settings: not given.
T1 construct: 514-612
T1 sequence (P04584 whole entry): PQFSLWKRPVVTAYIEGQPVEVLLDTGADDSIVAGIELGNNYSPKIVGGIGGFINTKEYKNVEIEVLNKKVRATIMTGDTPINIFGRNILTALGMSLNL
Protocol: (§1) Enzymatic activity was measured by following cleavage of the substrate H-Lys-Ala-Arg-Val-Leu-pNph-Glu-Ala-Nle-NH2. Products of the cleavage reaction were quantified by HPLC detection
Work on `COc1ccc(CN[C@@H](C(=O)N[C@H](C(=O)NCc2nc3ccccc3[nH]2)C(C)C)[C@H](O)[C@H](Cc2ccccc2)NC(=O)[C@@H](NC(=O)OCc2ccccc2)C(C)(C)C)cc1` [5PhBuCOOH deriv.] yielded a Ki of 52 nM.
Molecule `COc1ccc(CN[C@@H](C(=O)N[C@H](C(=O)NCc2nc3ccccc3[nH]2)C(C)C)[C@H](O)[C@H](Cc2ccccc2)NC(=O)[C@@H](NC(=O)[C@@](C)(O)c2ccccc2)C(C)(C)C)cc1` [5PhBuCOOH deriv.] has a Ki of 110 nM.
`COc1ccc(CN[C@@H](C(=O)N[C@H](C(=O)NCc2nc3ccccc3[nH]2)C(C)C)[C@H](O)[C@H](Cc2ccccc2)NC(=O)[C@@H](NC(=O)CCc2ccc(O)cc2)C(C)(C)C)cc1` [5PhBuCOOH deriv.] was tested, and the Ki was 63 nM.
`CC(C)[C@H](NC(=O)[C@H](NCc1ccc(Cl)cc1)[C@H](O)[C@H](Cc1ccccc1)NC(=O)[C@@H](NC(=O)OCc1ccccc1)C(C)(C)C)C(=O)NCc1nc2ccccc2[nH]1` [benzyl N-[(1S)-1-{[(2S,3R,4R)-4-{[(1S)-1-[(1H-1,3-benzodiazol-2-ylmethyl)carbamoyl]-2-methylpropyl]carbamoyl}-4-{[(4-chlorophenyl)methyl]amino}-3-hydroxy-1-phenylbutan-2-yl]carbamoyl}-2,2-dimethylpropyl]carbamate] showed a Ki of 17 nM.

Same assay, conditions: pH 4.7; 37 °C
Molecule `CC(C)[C@H](NC(=O)[C@H](NCc1ccccc1)[C@H](O)[C@H](Cc1ccccc1)NC(=O)[C@@H](NC(=O)OCc1ccccc1)C(C)(C)C)C(=O)NCc1ccccc1` [5PhBuCOOH deriv.] has a Ki of 54 nM.
`COc1ccc(CN[C@@H](C(=O)N[C@H](C(=O)NCc2ccccc2)C(C)C)[C@H](O)[C@H](Cc2ccccc2)NC(=O)[C@@H](NC(=O)OCc2ccccc2)C(C)C)cc1` [benzyl N-[(1S)-1-{[(2S,3R,4R)-4-{[(1S)-1-(benzylcarbamoyl)-2-methylpropyl]carbamoyl}-3-hydroxy-4-{[(4-methoxyphenyl)methyl]amino}-1-phenylbutan-2-yl]carbamoyl}-2-methylpropyl]carbamate] showed a Ki of 39 nM.
With `CC(C)[C@H](NC(=O)OCc1ccccc1)C(=O)N[C@@H](Cc1ccccc1)[C@@H](O)[C@@H](NCc1ccccc1)C(=O)N[C@H](C(=O)NCc1ccccc1)C(C)C` [5PhBuCOOH deriv.] the Ki was 180 nM.

These molecules were tested against T2, Dimer of Gag-Pol polyprotein [489-587] (Human immunodeficiency virus 1, UniProt P12497) (assay: Protease Inhibition Assay). Settings: not given.
T2 construct: 489-587
Protocol: as §1
In the case of `COc1ccc(CN[C@@H](C(=O)N[C@H](C(=O)NCc2nc3ccccc3[nH]2)C(C)C)[C@H](O)[C@H](Cc2ccccc2)NC(=O)[C@@H](NC(=O)[C@@](C)(O)c2ccccc2)C(C)(C)C)cc1` [5PhBuCOOH deriv.], the Ki is reported as 6 nM.
`CC(C)[C@H](NC(=O)OCc1ccccc1)C(=O)N[C@@H](Cc1ccccc1)[C@@H](O)[C@@H](NCc1ccccc1)C(=O)N[C@@H](C(=O)NCc1ccccc1)C(C)(C)C` [5PhBuCOOH deriv.] was tested, and the Ki was greater than 3000 nM.

Same assay, conditions: pH 6.25; 37 °C
`CCC(C)[C@H](NC(=O)OCc1ccccc1)C(=O)N[C@@H](Cc1ccccc1)[C@@H](O)[C@@H](NCc1ccccc1)C(=O)N[C@H](C(=O)NCc1ccccc1)C(C)C` (stereo partly drawn) [5PhBuCOOH deriv.] showed a Ki of 8.3 nM.
Molecule `CC(C)[C@H](NC(=O)OCc1ccccc1)C(=O)N[C@@H](Cc1ccccc1)[C@@H](O)[C@@H](NCc1ccccc1)C(=O)N[C@H](C(=O)NCc1ccccc1)C(C)(C)C` [benzyl N-[(1S)-1-{[(2S,3R,4R)-4-(benzylamino)-4-{[(1S)-1-(benzylcarbamoyl)-2,2-dimethylpropyl]carbamoyl}-3-hydroxy-1-phenylbutan-2-yl]carbamoyl}-2-methylpropyl]carbamate] has a Ki of 20 nM.
In the case of `CCC(C)[C@H](NC(=O)[C@H](NCc1ccccc1)[C@H](O)[C@H](Cc1ccccc1)NC(=O)[C@@H](NC(=O)OCc1ccccc1)C(C)C)C(=O)NCc1ccccc1` (stereo partly drawn) [benzyl N-[(1S)-1-{[(2S,3R,4R)-4-(benzylamino)-4-{[(1S,2R)-1-(benzylcarbamoyl)-2-methylbutyl]carbamoyl}-3-hydroxy-1-phenylbutan-2-yl]carbamoyl}-2-methylpropyl]carbamate], the Ki is reported as greater than 3000 nM.
For `CC(C)[C@H](NC(=O)[C@H](NCc1ccccc1)[C@H](O)[C@H](Cc1ccccc1)NC(=O)[C@H](CCC(=O)O)NC(=O)OCc1ccccc1)C(=O)NCc1ccccc1` [5PhBuCOOH deriv.], the Ki was 45 nM.
